# According to patent US11331299B2, “Medicinal use of serrulatane diterpenes” (The University of Sydney, priority 2016, dated 2022):
# Where two headings read alike, the source gives them in different places.
# System: 280 human cancer cell lines
# Test: OncoPanel cell proliferation assay (10-day)
# Format: cell-based
# Details: for EC50: read-out: Cell Count EC50; for IC50: read-out: Cell Count IC50
# [1] = Homo sapiens, 22Rv1, 22Rv1, Prostate
# [2] = Homo sapiens, 786-0, 786-O, Kidney
# [3] = Homo sapiens, A7, Skin (Melanoma)
# [4] = Homo sapiens, A101D, Skin (Melanoma)
# [5] = Homo sapiens, A 172, A172, CNS - Glioma
# [6] = Homo sapiens, A253, A-253, Head and Neck
# [7] = Homo sapiens, A388, Head and Neck
# [8] = Homo sapiens, A498, A498, Kidney
# [9] = Homo sapiens, A673, A-673, Soft Tissue - Sarcoma
# [10] = Homo sapiens, A704, A-704, Kidney
# [11] = Homo sapiens, A-375, A375, Skin (Melanoma)
# [12] = Homo sapiens, A-427, A427, Lung - NSCLC
# [13] = Homo sapiens, A-431, A431, Head and Neck
# [14] = Homo sapiens, AN3-CA, AN3 CA, Female GU - Uterus
# [15] = Homo sapiens, ARH-77, ARH-77, Myeloma
# [16] = Homo sapiens, ASPC1, AsPC-1, Pancreas
# [17] = Homo sapiens, AU565, AU565, Breast
# [18] = Homo sapiens, BCP-1, BCP-1, Lymphoma
# [19] = Homo sapiens, BE(2)-C, BE(2)C, CNS - Neuroblastoma
# [20] = Homo sapiens, BFTC-905, BFTC-905, Bladder
# [21] = Homo sapiens, BHT-101, BHT-101, Endocrine - Thyroid
# [22] = Homo sapiens, BM-1604, BM-1604, Prostate
# [23] = Homo sapiens, BPH-1, BPH1, Prostate
# [24] = Homo sapiens, BT-20, BT20, Breast
smiles,measurement,setting,value
"CC(C)=CCC[C@@H]1C(O)Oc2c(C)cc(O)c3c2[C@H]1CC[C@H]3C (stereo partly shown) [Compound 2, 5,18-epoxyserrulat-14-en-8,18-diol]","Number of cell types, GI Activity Potent","GI50 range 0.03-0.099 μM, of 280 cell types",1
same,"Number of cell types, GI Activity moderately potent","GI50 range 0.1-0.99 μM, of 280 cell types",1
same,"Number of cell types, GI Activity Strong","GI50 range 1-2.99 μM, of 280 cell types",8
same,"Number of cell types, GI Activity moderately strong","GI50 range 3-9.99 μM, of 280 cell types",110
same,"Number of cell types, GI Activity weak","GI50 range 10-30.00 μM, of 280 cell types",118
same,"Number of cell types, GI Activity very weak","GI50 range >30 μM, of 280 cell types",42
same,GI50,"Homo sapiens, 10 cell lines with potent to strong activity, read-out: GI50",0.06 to 2.96 µM
same,EC50,[1],11.4 µM
same,GI50,"Homo sapiens, 22Rv1, 22Rv1, Prostate, read-out: Cell Count GI50",11.3 µM
same,IC50,[1],11.4 µM
same,EC50,"Homo sapiens, 647-V, Bladder",11.3 µM
same,GI50,"Homo sapiens, 647-V, Bladder, read-out: Cell Count GI50",11.2 µM
same,IC50,"Homo sapiens, 647-V, Bladder",11.3 µM
same,EC50,"Homo sapiens, 769-P, Kidney",6.95 µM
same,GI50,"Homo sapiens, 769-P, Kidney, read-out: Cell Count GI50",6.94 µM
same,IC50,"Homo sapiens, 769-P, Kidney",6.95 µM
same,EC50,[2],27.9 µM
same,GI50,"Homo sapiens, 786-0, 786-O, Kidney, read-out: Cell Count GI50",27.9 µM
same,IC50,[2],27.9 µM
same,EC50,"Homo sapiens, 5637, Bladder",> 30 µM
same,GI50,"Homo sapiens, 5637, Bladder, read-out: Cell Count GI50",> 30 µM
same,IC50,"Homo sapiens, 5637, Bladder",> 30 µM
same,EC50,[3],5.54 µM
same,GI50,"Homo sapiens, A7, Skin (Melanoma), read-out: Cell Count GI50",5.6 µM
same,IC50,[3],5.63 µM
same,EC50,[4],> 30 µM
same,GI50,"Homo sapiens, A101D, Skin (Melanoma), read-out: Cell Count GI50",> 30 µM
same,IC50,[4],> 30 µM
same,EC50,[5],9.02 µM
same,GI50,"Homo sapiens, A 172, A172, CNS - Glioma, read-out: Cell Count GI50",8.93 µM
same,IC50,[5],9.02 µM
same,EC50,[6],28.5 µM
same,GI50,"Homo sapiens, A253, A-253, Head and Neck, read-out: Cell Count GI50",28.7 µM
same,IC50,[6],28.7 µM
same,EC50,[7],13.5 µM
same,GI50,"Homo sapiens, A388, Head and Neck, read-out: Cell Count GI50",13.4 µM
same,IC50,[7],13.5 µM
same,EC50,[8],13.3 µM
same,GI50,"Homo sapiens, A498, A498, Kidney, read-out: Cell Count GI50",13.2 µM
same,IC50,[8],13.3 µM
same,EC50,"Homo sapiens, A549, A549, Lung - NSCLC",22 µM
same,GI50,"Homo sapiens, A549, A549, Lung - NSCLC, read-out: Cell Count GI50",21.9 µM
same,EC50,[9],10.8 µM
same,GI50,"Homo sapiens, A673, A-673, Soft Tissue - Sarcoma, read-out: Cell Count GI50",11.1 µM
same,IC50,[9],11.1 µM
same,EC50,[10],> 30 µM
same,GI50,"Homo sapiens, A704, A-704, Kidney, read-out: Cell Count GI50",> 30 µM
same,IC50,[10],> 30 µM
same,EC50,[11],6.45 µM
same,GI50,"Homo sapiens, A-375, A375, Skin (Melanoma), read-out: Cell Count GI50",6.44 µM
same,IC50,[11],6.45 µM
same,EC50,[12],11.2 µM
same,GI50,"Homo sapiens, A-427, A427, Lung - NSCLC, read-out: Cell Count GI50",11.2 µM
same,IC50,[12],11.2 µM
same,EC50,[13],> 30 µM
same,GI50,"Homo sapiens, A-431, A431, Head and Neck, read-out: Cell Count GI50",> 30 µM
same,IC50,[13],> 30 µM
same,EC50,"Homo sapiens, ACHN, Kidney",8.79 µM
same,GI50,"Homo sapiens, ACHN, Kidney, read-out: Cell Count GI50",8.76 µM
same,IC50,"Homo sapiens, ACHN, Kidney",8.79 µM
same,EC50,"Homo sapiens, AGS, Stomach",4.69 µM
same,GI50,"Homo sapiens, AGS, Stomach, read-out: Cell Count GI50",4.69 µM
same,IC50,"Homo sapiens, AGS, Stomach",4.69 µM
same,EC50,[14],11.3 µM
same,GI50,"Homo sapiens, AN3-CA, AN3 CA, Female GU - Uterus, read-out: Cell Count GI50",11.1 µM
same,IC50,[14],11.3 µM
same,EC50,[15],9.5 µM
same,GI50,"Homo sapiens, ARH-77, ARH-77, Myeloma, read-out: Cell Count GI50",9.57 µM
same,IC50,[15],9.6 µM
same,EC50,[16],14.1 µM
same,GI50,"Homo sapiens, ASPC1, AsPC-1, Pancreas, read-out: Cell Count GI50",13.8 µM
same,IC50,[16],14.1 µM
same,EC50,[17],6.4 µM
same,GI50,"Homo sapiens, AU565, AU565, Breast, read-out: Cell Count GI50",6.29 µM
same,IC50,[17],6.4 µM
same,EC50,"Homo sapiens, BC-1, Lymphoma",7.95 µM
same,GI50,"Homo sapiens, BC-1, Lymphoma, read-out: Cell Count GI50",7.93 µM
same,IC50,"Homo sapiens, BC-1, Lymphoma",7.95 µM
same,EC50,[18],8.48 µM
same,GI50,"Homo sapiens, BCP-1, BCP-1, Lymphoma, read-out: Cell Count GI50",8.4 µM
same,IC50,[18],8.48 µM
same,EC50,[19],6.91 µM
same,GI50,"Homo sapiens, BE(2)-C, BE(2)C, CNS - Neuroblastoma, read-out: Cell Count GI50",7.48 µM
same,IC50,[19],7.52 µM
same,EC50,[20],8.03 µM
same,GI50,"Homo sapiens, BFTC-905, BFTC-905, Bladder, read-out: Cell Count GI50",8.01 µM
same,IC50,[20],8.03 µM
same,EC50,[21],14 µM
same,GI50,"Homo sapiens, BHT-101, BHT-101, Endocrine - Thyroid, read-out: Cell Count GI50",13.9 µM
same,IC50,[21],14 µM
same,EC50,[22],19.1 µM
same,GI50,"Homo sapiens, BM-1604, BM-1604, Prostate, read-out: Cell Count GI50",18.9 µM
same,IC50,[22],19.1 µM
same,EC50,[23],> 30 µM
same,GI50,"Homo sapiens, BPH-1, BPH1, Prostate, read-out: Cell Count GI50",> 30 µM
same,IC50,[23],> 30 µM
same,EC50,[24],12.2 µM
same,GI50,"Homo sapiens, BT-20, BT20, Breast, read-out: Cell Count GI50",12.3 µM
same,IC50,[24],12.7 µM
same,EC50,"Homo sapiens, BT-474, BT474, Breast",> 30 µM
